Literature values as cited in patent publication US10383918B2, “Compositions in the form of an injectable aqueous solution comprising human glucagon and a statistical co-polyamino acid” (ADOCIA, priority 2016, dated 2019).

Settings: lyophilizate reconstituted at acidic pH (pH<3)

Time to appearance of human glucagon fibrils after the reconstitution: ≤ 24 h
Substance: H-His-Ser-Gln-Gly-Thr-Phe-Thr-Ser-Asp-Tyr-Ser-Lys-Tyr-Leu-Asp-Ser-Arg-Arg-Ala-Gn-Asp-Phe-Val-Gn-Trp-Leu-Met-Asn-Thr-OH [human glucagon]
